According to ChEMBL document CHEMBL1201862, “PubChem BioAssay data set” (2004):
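In this assay, cells in 96-well plates receive the compound at five concentrations for 48 hours. Endpoints are linearly interpolated between the surrounding concentrations. GI50 is the concentration that inhibits growth by half.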 The source made the active and inactive calls. No stated cut-off is given here; in the data, active = GI50 up to about 1.1 µM and inactive = higher.

How the values were obtained:
Assay in all cases: NCI anticancer screen, dose series, 48 h
786-0 = tested on: 786-0
A549 = tested on: A549
ACHN = tested on: ACHN
BT-549 = tested on: BT-549
CAKI-1 = tested on: CAKI-1
DU-145 = tested on: DU-145
EKVX = tested on: EKVX
HCT-15 = tested on: HCT-15
HOP-92 = tested on: HOP-92
K562 = tested on: K562
MCF7 = tested on: MCF7
NCI-H226 = tested on: NCI-H226
NCI-H460 = tested on: NCI-H460
NCI-H522 = tested on: NCI-H522
NCI/ADR-RES = tested on: NCI/ADR-RES
RPMI-8226 = tested on: RPMI-8226
SF-539 = tested on: SF-539
SN12C = tested on: SN12C
SR = tested on: SR
UO-31 = tested on: UO-31

Structure (SMILES) | GI50 (786-0) | GI50 (A549) | GI50 (ACHN) | GI50 (BT-549) | GI50 (CAKI-1) | GI50 (DU-145) | GI50 (EKVX) | GI50 (HCT-15) [µM] | GI50 (HOP-92) | GI50 (K562) | GI50 (MCF7) | GI50 (NCI-H226) | GI50 (NCI-H460) | GI50 (NCI-H522) | GI50 (NCI/ADR-RES) | GI50 (RPMI-8226) | GI50 (SF-539) | GI50 (SN12C) | GI50 (SR) | GI50 (UO-31)
CCN(CC)C(=S)SNc1ccc(S(N)(=O)=O)cc1 | 29.9 µM (inactive) | 74.6 µM (inactive) | 45.1 µM (inactive) | 67.8 µM (inactive) | 36.8 µM (inactive) | > 92.9 µM (inactive) | > 100 µM (inactive) | > 77.4 | > 56.2 µM (inactive) | > 100 µM (inactive) | 0.0383 µM (active) | > 100 µM (inactive) | 38.7 µM (inactive) | 0.0755 µM (active) | > 83.6 µM (inactive) | 20.2 µM (inactive) | > 76.6 µM (inactive) | 68.1 µM (inactive) | 33.2 µM (inactive) | 33.2 µM (inactive)
Cc1nnc(N)nc1/C=C\c1cccs1 | 18.6 µM (inactive) | 27.7 µM (inactive) | 15 µM (inactive) | 42.9 µM (inactive) | 34.2 µM (inactive) | 79.6 µM (inactive) | 13.3 µM (inactive) | 10.2 | 18.4 µM (inactive) | 23.4 µM (inactive) | 13.9 µM (inactive) | 17.5 µM (inactive) | 14.7 µM (inactive) | 4.06 µM (inactive) | 16.7 µM (inactive) | 22.4 µM (inactive) | – | > 10 µM (inactive) | 16.6 µM (inactive) | 10.1 µM (inactive)
CC(C)n1c2c(c3ccccc3c1=O)C(=O)c1ccccc1-2 | > 100 µM (inactive) | > 100 µM (inactive) | – | > 100 µM (inactive) | > 100 µM (inactive) | > 100 µM (inactive) | > 100 µM (inactive) | > 100 | > 100 µM (inactive) | > 100 µM (inactive) | > 100 µM (inactive) | > 100 µM (inactive) | – | > 100 µM (inactive) | > 100 µM (inactive) | > 100 µM (inactive) | > 100 µM (inactive) | > 100 µM (inactive) | > 100 µM (inactive) | > 100 µM (inactive)
C=CCN1C(=O)C=C(c2ccccc2)n2ncc3cccc1c32 | > 100 µM (inactive) | > 100 µM (inactive) | > 100 µM (inactive) | > 100 µM (inactive) | > 100 µM (inactive) | > 100 µM (inactive) | 95.5 µM (inactive) | > 100 | 27.7 µM (inactive) | – | > 100 µM (inactive) | > 100 µM (inactive) | – | > 100 µM (inactive) | > 100 µM (inactive) | 97.7 µM (inactive) | > 100 µM (inactive) | > 100 µM (inactive) | > 100 µM (inactive) | > 100 µM (inactive)
CC(=O)Nc1ccc2c(c1)nc1c3ccccc3ccn21 | > 100 µM (inactive) | > 100 µM (inactive) | > 100 µM (inactive) | > 100 µM (inactive) | 96.4 µM (inactive) | > 100 µM (inactive) | > 100 µM (inactive) | > 100 | > 100 µM (inactive) | 56.1 µM (inactive) | > 100 µM (inactive) | > 100 µM (inactive) | > 100 µM (inactive) | > 100 µM (inactive) | > 100 µM (inactive) | – | > 100 µM (inactive) | > 100 µM (inactive) | > 100 µM (inactive) | 90.4 µM (inactive)
O=C1/C(=C/c2ccncc2)C(n2cccc2)c2c(Br)sc(Br)c21 (stereo unspecified) | 3.41 µM (inactive) | 14.9 µM (inactive) | 4.95 µM (inactive) | 3.07 µM (inactive) | 3.26 µM (inactive) | 3.56 µM (inactive) | 3.1 µM (inactive) | 2.85 | 2.86 µM (inactive) | 1.82 µM (inactive) | 3.85 µM (inactive) | – | 4.39 µM (inactive) | 11.7 µM (inactive) | 14.3 µM (inactive) | 2.02 µM (inactive) | 3.87 µM (inactive) | 4.39 µM (inactive) | 2.58 µM (inactive) | 2.29 µM (inactive)
CCN(CC)CCOc1ccc(N2C(=O)c3cc(OC)c(OC)cc3C2=O)cc1 | > 100 µM (inactive) | > 100 µM (inactive) | > 100 µM (inactive) | > 100 µM (inactive) | > 100 µM (inactive) | > 100 µM (inactive) | > 100 µM (inactive) | > 100 | > 100 µM (inactive) | > 100 µM (inactive) | > 100 µM (inactive) | > 100 µM (inactive) | > 100 µM (inactive) | > 100 µM (inactive) | > 100 µM (inactive) | > 100 µM (inactive) | > 100 µM (inactive) | > 100 µM (inactive) | > 100 µM (inactive) | –
O=C(/C=C/c1ccccc1)Oc1cccc(Br)c1 | > 100 µM (inactive) | 69.8 µM (inactive) | > 100 µM (inactive) | > 100 µM (inactive) | 48.6 µM (inactive) | 89.9 µM (inactive) | 48.3 µM (inactive) | 18.2 | 91 µM (inactive) | – | 20.5 µM (inactive) | > 100 µM (inactive) | > 100 µM (inactive) | 5.68 µM (inactive) | 60.1 µM (inactive) | 14.1 µM (inactive) | 39.9 µM (inactive) | > 100 µM (inactive) | 23.4 µM (inactive) | 52.8 µM (inactive)
CC(=O)NNc1nc(-c2ccc([N+](=O)[O-])cc2)c(C#N)c(=O)n1C | 22.1 µM (inactive) | > 100 µM (inactive) | > 100 µM (inactive) | 1.88 µM (inactive) | 79.8 µM (inactive) | 34.2 µM (inactive) | 38 µM (inactive) | 29.3 | 13.5 µM (inactive) | 24.3 µM (inactive) | 28.5 µM (inactive) | – | > 100 µM (inactive) | 22.1 µM (inactive) | > 100 µM (inactive) | 21.1 µM (inactive) | 18.3 µM (inactive) | > 100 µM (inactive) | 13.9 µM (inactive) | 37.6 µM (inactive)
CC(C)(C)OC(=O)NCCC1CN(C(=O)c2ccccc2)c2ccccc21 (stereo unspecified) | 35.3 µM (inactive) | 25.3 µM (inactive) | 32.7 µM (inactive) | 25.1 µM (inactive) | 36 µM (inactive) | 45.8 µM (inactive) | 25.6 µM (inactive) | 29.9 | 26.5 µM (inactive) | 27 µM (inactive) | 28.2 µM (inactive) | – | 22.9 µM (inactive) | 22.6 µM (inactive) | 22.1 µM (inactive) | 19.7 µM (inactive) | – | – | 7.82 µM (inactive) | 23.7 µM (inactive)
O=C1CSC2=NC3=C(COC/C3=C\c3ccc(Br)cc3)C(c3ccc(Br)cc3)N12 (stereo unspecified) | 83.6 µM (inactive) | – | 82.8 µM (inactive) | > 100 µM (inactive) | > 100 µM (inactive) | > 100 µM (inactive) | > 100 µM (inactive) | 52.6 | > 100 µM (inactive) | 28.9 µM (inactive) | 44.4 µM (inactive) | > 100 µM (inactive) | 51.2 µM (inactive) | 3.92 µM (inactive) | 31.8 µM (inactive) | 20.9 µM (inactive) | > 100 µM (inactive) | > 100 µM (inactive) | 15.3 µM (inactive) | 35.3 µM (inactive)
